In patent US6479435B1, “Diaryl ethers and processes for their preparation and herbicidal and desiccant compositions containing them” (ISK Americas Incorporated, priority 1997, dated 2002):

How the values were obtained:
Assay type in all cases: in vivo
[1] = system: Johnsongrass (Sorghum halepense, SORHA); assay: Pre-emerge greenhouse herbicide test, phytotoxicity rating; conditions: 14 days after application, rating scale 0-100
In short: (§1)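 Visual 0–100 injury rating (100 = all plants dead) taken 14 days after treatment. Rates of 125–1000 g ai/ha in acetone, 187 l/ha, were sprayed onto soil one day post-sowing; pots were surface-watered to incorporate, then bottom-watered.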

[2] = system: barnyardgrass (Echinochloa crusgalli, ECHCG); assay: as above; conditions: 14 days after application, rating scale 0-100
In short: as §1

[3] = system: common ragweed (Ambrosia artemisiifolia L., AMBEL); assay: as above; conditions: 14 days after application, rating scale 0-100
In short: as §1

[4] = system: green foxtail (Setaria viridis, SETVI); assay: as above; conditions: 14 days after application, rating scale 0-100
In short: as §1

[5] = system: ivyleaf morningglory (Ipomoea hederacea, IPOHE); assay: as above; conditions: 14 days after application, rating scale 0-100
In short: as §1

[6] = system: lambsquarters (Chenopodium album, CHEAL); assay: as above; conditions: 14 days after application, rating scale 0-100
In short: as §1

[7] = system: large crabgrass (Digitaria sanguinalis, DIGSA); assay: as above; conditions: 14 days after application, rating scale 0-100
In short: as §1

[8] = system: redroot pigweed (Amaranthus retroflexus, AMARE); assay: as above; conditions: 14 days after application, rating scale 0-100
In short: as §1

[9] = system: sicklepod (Cassia obtusifolia, CASOB); assay: as above; conditions: 14 days after application, rating scale 0-100
In short: as §1

[10] = system: velvetleaf (Abutilon theophrasti, ABUTH); assay: as above; conditions: 14 days after application, rating scale 0-100
In short: as §1

[11] = system: field corn (Zea mays L., var. Dekalb 535, CORN); assay: Pre-emerge greenhouse test, crop damage rating; conditions: 14 days after application, rating scale 0-100
In short: as §1

[12] = system: upland rice (Oryza sp., var.Tebonnet, RICE); assay: Pre-emerge greenhouse test, crop damage rating; conditions: 14 days after application, rating scale 0-100
In short: as §1

[13] = system: soybean (Glycine max L., var. Pella 86, SOY); assay: Pre-emerge greenhouse test, crop damage rating; design: key to SOY crop damage rating: 0 = no damage, 100 = complete death of all plants; conditions: 14 days after application, rating scale 0-100
In short: as §1

[14] = system: common ragweed (Ambrosia artemisiifolia L., AMBEL); assay: Post-emerge greenhouse herbicide test, phytotoxicity rating; conditions: 14 days after application; for phytotoxicity rating AMBEL: scale 0-100
In short: (§2)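 Scores use a 0 (no damage) to 100 (complete kill) scale, taken 14 days after a foliar spray. Acetone solutions with 0.25% v/v non-ionic surfactant were applied by track sprayer at 187 l/ha and 63-1000 g ai/ha to bottom-watered 2-3 leaf plants.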

[15] = system: Johnsongrass (Sorghum halepense, SORHA); assay: as above; conditions: 14 days after application; for phytotoxicity rating SORHA: scale 0-100
In short: as §2

[16] = system: barnyardgrass (Echinochloa crusgalli, ECHCG); assay: as above; conditions: 14 days after application; for phytotoxicity rating ECHCG: scale 0-100
In short: as §2

[17] = system: green foxtail (Setaria viridis, SETVI); assay: as above; conditions: 14 days after application; for phytotoxicity rating SETVI: scale 0-100
In short: as §2

[18] = system: ivyleaf morningglory (Ipomoea hederacea, IPOHE); assay: as above; conditions: 14 days after application; for phytotoxicity rating IPOHE: scale 0-100
In short: as §2

[19] = system: lambsquarters (Chenopodium album, CHEAL); assay: as above; conditions: 14 days after application; for phytotoxicity rating CHEAL: scale 0-100
In short: as §2

[20] = system: large crabgrass (Digitaria sanguinalis, DIGSA); assay: as above; conditions: 14 days after application; for phytotoxicity rating DIGSA: scale 0-100
In short: as §2

[21] = system: redroot pigweed (Amaranthus retroflexus, AMARE); assay: as above; conditions: 14 days after application; for phytotoxicity rating AMARE: scale 0-100
In short: as §2

[22] = system: sicklepod (Cassia obtusifolia, CASOB); assay: as above; conditions: 14 days after application; for phytotoxicity rating CASOB: scale 0-100
In short: as §2

[23] = system: velvetleaf (Abutilon theophrasti, ABUTH); assay: as above; conditions: 14 days after application; for phytotoxicity rating ABUTH: scale 0-100
In short: as §2

[24] = system: field corn (Zea mays L., var. Dekalb 535, CORN); assay: Post-emerge greenhouse test, crop damage rating; conditions: 14 days after application; for crop damage rating CORN: scale 0-100
In short: as §2

[25] = system: upland rice (Oryza sp., var.Tebonnet, RICE); assay: Post-emerge greenhouse test, crop damage rating; conditions: 14 days after application; for crop damage rating RICE: scale 0-100
In short: as §2

[26] = system: soybean (Glycine max L., var. Pella 86, SOY); assay: Post-emerge greenhouse test, crop damage rating; design: key to crop damage rating SOY: 0-100 scale: 0 = no damage, 100 = complete death of all plants; conditions: 14 days after application; for crop damage rating SOY: scale 0-100
In short: as §2

SMILES: O=c1n(-c2cc(Oc3nccc(C(F)(F)F)n3)c(Cl)cc2F)c(=S)n2n1CCCC2 [Compound 8-30]
- SORHA phytotoxicity rating ([1]; Rate 125 g al/ha): 40
- SORHA phytotoxicity rating ([1]; Rate 500 g al/ha): 99
- ECHCG phytotoxicity rating ([2]; Rate 125 g al/ha): 40
- ECHCG phytotoxicity rating ([2]; Rate 500 g al/ha): 99
- AMBEL phytotoxicity rating ([3]; Rate 125 g al/ha): 100
- AMBEL phytotoxicity rating ([3]; Rate 500 g al/ha): 99
- SETVI phytotoxicity rating ([4]; Rate 125 g al/ha): 100
- SETVI phytotoxicity rating ([4]; Rate 500 g al/ha): 100
- IPOHE phytotoxicity rating ([5]; Rate 125 g al/ha): 100
- IPOHE phytotoxicity rating ([5]; Rate 500 g al/ha): 90
- CHEAL phytotoxicity rating ([6]; Rate 125 g al/ha): 100
- CHEAL phytotoxicity rating ([6]; Rate 500 g al/ha): 100
- DIGSA phytotoxicity rating ([7]; Rate 125 g al/ha): 70
- DIGSA phytotoxicity rating ([7]; Rate 500 g al/ha): 100
- AMARE phytotoxicity rating ([8]; Rate 125 g al/ha): 100
- AMARE phytotoxicity rating ([8]; Rate 500 g al/ha): 100
- CASOB phytotoxicity rating ([9]; Rate 125 g al/ha): 100
- CASOB phytotoxicity rating ([9]; Rate 500 g al/ha): 100
- ABUTH phytotoxicity rating ([10]; Rate 125 g al/ha): 100
- ABUTH phytotoxicity rating ([10]; Rate 500 g al/ha): 100
- CORN crop damage rating ([11]; Rate 125 g al/ha): 10
- CORN crop damage rating ([11]; Rate 500 g al/ha): 20
- RICE crop damage rating ([12]; Rate 125 g al/ha): 20
- RICE crop damage rating ([12]; Rate 500 g al/ha): 90
- SOY crop damage rating ([13]; Rate 125 g al/ha): 80
- SOY crop damage rating ([13]; Rate 500 g al/ha): 80
- phytotoxicity rating AMBEL ([14]; rate 63 g ai/ha): 90
- phytotoxicity rating AMBEL ([14]; rate 500 g ai/ha): 99
- phytotoxicity rating SORHA ([15]; rate 63 g ai/ha): 20
- phytotoxicity rating SORHA ([15]; rate 500 g ai/ha): 95
- phytotoxicity rating ECHCG ([16]; rate 63 g ai/ha): 10
- phytotoxicity rating ECHCG ([16]; rate 500 g ai/ha): 40
- phytotoxicity rating SETVI ([17]; rate 63 g ai/ha): 60
- phytotoxicity rating SETVI ([17]; rate 500 g ai/ha): 95
- phytotoxicity rating IPOHE ([18]; rate 63 g ai/ha): 100
- phytotoxicity rating IPOHE ([18]; rate 500 g ai/ha): 100
- phytotoxicity rating CHEAL ([19]; rate 63 g ai/ha): 95
- phytotoxicity rating CHEAL ([19]; rate 500 g ai/ha): 100
- phytotoxicity rating DIGSA ([20]; rate 63 g ai/ha): 0
- phytotoxicity rating DIGSA ([20]; rate 500 g ai/ha): 10
- phytotoxicity rating AMARE ([21]; rate 63 g ai/ha): 90
- phytotoxicity rating AMARE ([21]; rate 500 g ai/ha): 100
- phytotoxicity rating CASOB ([22]; rate 63 g ai/ha): 100
- phytotoxicity rating CASOB ([22]; rate 500 g ai/ha): 100
- phytotoxicity rating ABUTH ([23]; rate 63 g ai/ha): 100
- phytotoxicity rating ABUTH ([23]; rate 500 g ai/ha): 100
- crop damage rating CORN ([24]; rate 63 g ai/ha): 15
- crop damage rating CORN ([24]; rate 500 g ai/ha): 40
- crop damage rating RICE ([25]; rate 63 g ai/ha): 5
- crop damage rating RICE ([25]; rate 500 g ai/ha): 80
- crop damage rating SOY ([26]; rate 63 g ai/ha): 95
- crop damage rating SOY ([26]; rate 500 g ai/ha): 100

SMILES: O=c1n(CCCF)nnn1-c1cc(Oc2ccc(C(F)(F)F)cn2)c(Cl)cc1Cl [Compound 6-9]
- phytotoxicity rating SORHA ([1]; 125 g ai/ha): 0
- phytotoxicity rating SORHA ([1]; 500 g ai/ha): 0
- phytotoxicity rating ECHCG ([2]; 125 g ai/ha): 0
- phytotoxicity rating ECHCG ([2]; 500 g ai/ha): 0
- phytotoxicity rating AMBEL ([3]; 125 g ai/ha): 0
- phytotoxicity rating AMBEL ([3]; 500 g ai/ha): 0
- phytotoxicity rating SETVI ([4]; 125 g ai/ha): 0
- phytotoxicity rating SETVI ([4]; 500 g ai/ha): 0
- phytotoxicity rating IPOHE ([5]; 125 g ai/ha): 0
- phytotoxicity rating IPOHE ([5]; 500 g ai/ha): 0
- phytotoxicity rating CHEAL ([6]; 125 g ai/ha): 0
- phytotoxicity rating CHEAL ([6]; 500 g ai/ha): 0
- phytotoxicity rating DIGSA ([7]; 125 g ai/ha): 0
- phytotoxicity rating DIGSA ([7]; 500 g ai/ha): 0
- phytotoxicity rating AMARE ([8]; 125 g ai/ha): 0
- phytotoxicity rating AMARE ([8]; 500 g ai/ha): 0
- phytotoxicity rating CASOB ([9]; 125 g ai/ha): 0
- phytotoxicity rating CASOB ([9]; 500 g ai/ha): 0
- phytotoxicity rating ABUTH ([10]; 125 g ai/ha): 0
- phytotoxicity rating ABUTH ([10]; 500 g ai/ha): 0
- crop damage rating CORN ([11]; 125 g ai/ha): 0
- crop damage rating CORN ([11]; 500 g ai/ha): 0
- crop damage rating RICE ([12]; 125 g ai/ha): 0
- crop damage rating RICE ([12]; 500 g ai/ha): 0
- crop damage rating SOY ([13]; 125 g ai/ha): 0
- crop damage rating SOY ([13]; 500 g ai/ha): 0
- AMBEL phytotoxicity rating (0-100) ([14]; 63 g al/ha): 0
- AMBEL phytotoxicity rating (0-100) ([14]; 250 g al/ha): 0
- SORHA phytotoxicity rating (0-100) ([15]; 63 g al/ha): 0
- SORHA phytotoxicity rating (0-100) ([15]; 250 g al/ha): 0
- ECHCG phytotoxicity rating (0-100) ([16]; 63 g al/ha): 0
- ECHCG phytotoxicity rating (0-100) ([16]; 250 g al/ha): 0
- SETVI phytotoxicity rating (0-100) ([17]; 63 g al/ha): 0
- SETVI phytotoxicity rating (0-100) ([17]; 250 g al/ha): 0
- IPOHE phytotoxicity rating (0-100) ([18]; 63 g al/ha): 0
- IPOHE phytotoxicity rating (0-100) ([18]; 250 g al/ha): 0
- CHEAL phytotoxicity rating (0-100) ([19]; 63 g al/ha): 0
- CHEAL phytotoxicity rating (0-100) ([19]; 250 g al/ha): 0
- DIGSA phytotoxicity rating (0-100) ([20]; 63 g al/ha): 0
- DIGSA phytotoxicity rating (0-100) ([20]; 250 g al/ha): 0
- AMARE phytotoxicity rating (0-100) ([21]; 63 g al/ha): 0
- AMARE phytotoxicity rating (0-100) ([21]; 250 g al/ha): 0
- CASOB phytotoxicity rating (0-100) ([22]; 63 g al/ha): 0
- CASOB phytotoxicity rating (0-100) ([22]; 250 g al/ha): 0
- ABUTH phytotoxicity rating (0-100) ([23]; 63 g al/ha): 0
- ABUTH phytotoxicity rating (0-100) ([23]; 250 g al/ha): 0
- CORN crop damage rating (0-100) ([24]; 63 g al/ha): 0
- CORN crop damage rating (0-100) ([24]; 250 g al/ha): 0
- RICE crop damage rating (0-100) ([25]; 63 g al/ha): 0
- RICE crop damage rating (0-100) ([25]; 250 g al/ha): 0
- SOY crop damage rating (0-100) ([26]; 63 g al/ha): 0
- SOY crop damage rating (0-100) ([26]; 250 g al/ha): 0
